Source: patent US20200131159A1, “POSITIVE ALLOSTERIC MODULATORS OF THE MUSCARINIC ACETYLCHOLINE RECEPTOR M1” (Vanderbilt University, priority 2018, published 2020)
pEC50: −log10 of the molar value.

Molecular target: T1, human mAChR M1 (Homo sapiens, UniProt P11229)
T1 construct: hM1 and hM4 cDNAs were purchased from Missouri S&T cDNA Resource; host or cells: CHO-K1 cells, stably transfected with Lipofectamine2000
T1 sequence (P11229 1-460): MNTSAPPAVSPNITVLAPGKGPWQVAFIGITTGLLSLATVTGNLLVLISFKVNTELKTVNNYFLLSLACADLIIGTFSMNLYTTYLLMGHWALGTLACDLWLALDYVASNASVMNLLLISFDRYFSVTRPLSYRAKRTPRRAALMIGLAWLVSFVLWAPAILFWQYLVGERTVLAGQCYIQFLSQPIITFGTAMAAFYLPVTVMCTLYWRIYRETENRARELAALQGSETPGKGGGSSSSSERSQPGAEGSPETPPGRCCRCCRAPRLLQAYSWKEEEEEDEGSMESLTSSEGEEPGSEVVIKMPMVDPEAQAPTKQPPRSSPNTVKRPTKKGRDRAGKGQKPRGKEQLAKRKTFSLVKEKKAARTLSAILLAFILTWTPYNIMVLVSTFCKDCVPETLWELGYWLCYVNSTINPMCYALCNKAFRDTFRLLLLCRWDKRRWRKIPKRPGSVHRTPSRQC
Test: mAChR M1 cell-based functional assay (calcium mobilization, PAM mode, EC20 acetylcholine)
Conditions: CHO-K1 cells expressing hM1, calcium flux (Fluo-4); for Emax: EC20 acetylcholine response; for pEC50: concentration-dependent increase in the EC20 acetylcholine response
Excerpt: Chinese hamster ovary (CHO-K1) cells stably expressing rat (r)M1 were purchased from the American Type Culture Collection and cultured according to their indicated protocol. CHO cells stably expressing human (h)M2, hM3, and hM5 were described previously (Levey, et al., 1991); hM1 and hM4 cDNAs were purchased from Missouri S&T cDNA Resource; rM4 cDNA was provided by T. I. Bonner (National Institutes of Health, Bethesda, Md.). rM2 and rM3 were cloned from a rat brain cDNA library and sequence verified. hM1, rM2, rM3, hM4, and rM4 cDNAs were used to stably transfect CHO-K1 cells purchased from the American Type Culture Collection using Lipofectamine2000. To make stable rM2, hM2, rM3, hM4, and rM4 cell lines for use in calcium mobilization assays, these cells also were stably transfected with a chimeric G-protein (Gqi5) (provided by B. R. Conklin, University of California, San Francisco) using Lipofectamine 2000. rM1, hM1, rM3, hM3, rM5, and hM5 cells were grown in Ham's F-12 medium containing 10% heat-inactivated fetal bovine serum (FBS), 20 mM HEPES, and 50 µg/mL G418 sulfate. rM2-Gqi5, hM2-Gqi5, and hM4-Gqi5 cells were grown in the same medium also containing 500 μg/mL Hygromycin B. Stable rM4-Gqi5 cells were grown in DMEM containing 10% heat-inactivated FBS, 20 mM HEPES, 400 μg/mL G418 sulfate, and 500 μg/mL Hygromycin B.
For high throughput measurement of agonist-evoked increases in intracellular calcium, CHO-K1 cells stably expressing muscarinic receptors were plated in growth medium lacking G418 and hygromycin at 15,000 cells/20 μL/well in Greiner 384-well black-walled, tissue culture (TC)-treated, clear-bottom plates (VWR). Cells were incubated overnight at 37° C. and 5% CO2. The next day, cells were washed using an ELX 405 (BioTek) with four washes (80 μL) of assay buffer then aspirated to 20 μL. Next, 20 μL of 16 μM Fluo-4/acetoxymethyl ester (Invitrogen, Carlsbad, Calif.) prepared as a 2.3 mM stock in DMSO and mixed in a 1:1 ratio with 10% (w/v) Pluronic F-127 and diluted in assay buffer was added to the wells and the cell plates were incubated for 50 min at 37° C. and 5% CO2. Dye was removed by washing with the ELX 405 (four 80 μL washes of assay buffer) then aspirated to 20 μL. Compound master plates were formatted in an 11 point CRC format (1:3 dilutions) in 100% DMSO with a starting concentration of 10 mM using the BRAVO liquid handler (Agilent). Test compound CRCs were then transferred to daughter plates (240 nL) using the Echo acoustic plate reformatter (Labcyte, Sunnyvale, Calif.) and then diluted into assay buffer (40 μL) to a 2× stock using a Thermo Fisher Combi (Thermo Fisher Scientific, Waltham, Mass.).
Calcium flux was measured using the Functional Drug Screening System (FDSS) 6000 (Hamamatsu Corporation, Tokyo, Japan) as an increase in the fluorescent static ratio. Compounds were applied to cells (20 μL, 2×) using the automated system of the FDSS 6000 at 4 s into the 300 s protocol and the data were collected at 1 Hz. […] Agonist activity was analyzed as a concentration-dependent increase in calcium mobilization upon compound addition. Emax values for agonist activity are expressed relative to the maximum for acetylcholine. Positive allosteric modulator activity was analyzed as a concentration-dependent increase in the EC20 acetylcholine response. Antagonist activity was analyzed as a concentration-dependent decrease in the […] acetylcholine response. Concentration-response curves were generated using a four-parameter logistical equation in XLfit curve fitting software (IDBS, Bridgewater, N.J.) for Excel (Microsoft, Redmond, Wash.) or Prism (GraphPad Software, Inc., San Diego, Calif.).
Activity (EC50 and Emax) was determined in the mAChR M1 cell-based functional assay as described above and the data are shown in Table 2. The compound numbers correspond to the compound numbers used in Table 1.

| Compound | Emax | pEC50 |
| --- | --- | --- |
| Cn1ccc(-c2ccc(Cc3cc(C(=O)NC4CC5(COC5)C4)c4ncccc4c3)cn2)n1 [compound 14, 6-[[6-(1-methylpyrazol-3-yl)-3-pyridyl]methyl]-N-(2-oxaspiro[3.3]heptan-6-yl)quinoline-8-carboxamide] | 73% | 5.28 |
| Cn1ccc(-c2ccc(Cc3cc(C(=O)NC4CCOCC4)c4ncccc4c3)cn2)n1 [compound 15, 6-[[6-(1-methylpyrazol-3-yl)-3-pyridyl]methyl]-N-tetrahydropyran-4-yl-quinoline-8-carboxamide] | 66% | – |
| Cc1nc(-c2ccc(Cc3cc(C(=O)N[C@H]4CCCCC[C@@H]4O)c4ncccc4c3)cc2)co1 [compound 17, N-[(1S,2S)-2-hydroxycycloheptyl]-6-[[4-(2-methyloxazol-4-yl)phenyl]methyl]quinoline-8-carboxamide] | 65% | 5.74 |
| Cc1nc(-c2ccc(Cc3cc(C(=O)N[C@H]4CCC[C@@H]4O)c4ncccc4c3)cc2)co1 [compound 19, N-[(1S,2S)-2-hydroxycyclopentyl]-6-[[4-(2-methyloxazol-4-yl)phenyl]methyl]quinoline-8-carboxamide] | 61% | 5.66 |
| Cc1nc(-c2ccc(Cc3cc(C(=O)NC4CC5(COC5)C4)c4ncccc4c3)cc2)co1 [compound 20, 6-[[4-(2-methyloxazol-4-yl)phenyl]methyl]-N-(2-oxaspiro[3.3]heptan-6-yl)quinoline-8-carboxamide] | 48% | 5.36 |
| Cn1cc2c(-c3cc(F)c(Cc4cc(C(=O)N[C@H]5CCOC[C@@H]5O)c5ncccc5c4)c(F)c3)cccc2n1 [compound 21, 6-[[2,6-difluoro-4-(2-methylindazol-4-yl)phenyl]methyl]-N-[(3R,4S)-3-hydroxytetrahydropyran-4-yl]quinoline-8-carboxamide] | 67% | 5.50 |
| Cn1cc2c(-c3cc(F)c(Cc4cc(C(=O)N[C@H]5CCCC[C@@H]5O)c5ncccc5c4)c(F)c3)cccc2n1 [compound 22, 6-[[2,6-difluoro-4-(2-methylindazol-4-yl)phenyl]methyl]-N-[(1S,2S)-2-hydroxycyclohexyl]quinoline-8-carboxamide] | 42% | 5.24 |
| Cc1c(Cc2ccc(-n3cccn3)cc2)cc(C(=O)N[C@H]2CCCCC[C@@H]2O)c2ncccc12 [compound 24, N-[(1S,2S)-2-hydroxycycloheptyl]-5-methyl-6-[(4-pyrazol-1-ylphenyl)methyl]quinoline-8-carboxamide] | 66% | – |

Now from value to compound:

| Emax | pEC50 | Compound |
| --- | --- | --- |
| 86% | 6.36 | Cc1nc(-c2ccc(Cc3cc(C(=O)N[C@H]4CCOC[C@@H]4O)c4ncccc4c3)cc2)co1 [compound 16, N-[(3R,4S)-3-hydroxytetrahydropyran-4-yl]-6-[[4-(2-methyloxazol-4-yl)phenyl]methyl]quinoline-8-carboxamide] |
| 82% | 6.11 | Cc1nc(-c2ccc(Cc3cc(C(=O)N[C@H]4CCCC[C@@H]4O)c4ncccc4c3)cc2)co1 [compound 18, N-[(1S,2S)-2-hydroxycyclohexyl]-6-[[4-(2-methyloxazol-4-yl)phenyl]methyl]quinoline-8-carboxamide] |
| 77% | 6.97 | Cc1c(Cc2ccc(-n3cccn3)cc2)cc(C(=O)N[C@H]2CCOC[C@@H]2O)c2ncccc12 [compound 23, N-[(3R,4S)-3-hydroxytetrahydropyran-4-yl]-5-methyl-6-[(4-pyrazol-1-ylphenyl)methyl]quinoline-8-carboxamide] |
| 81% | 6.41 | Cc1c(Cc2ccc(-n3cccn3)cc2)cc(C(=O)N[C@H]2CCCC[C@@H]2O)c2ncccc12 [compound 25, N-[(1S,2S)-2-hydroxycyclohexyl]-5-methyl-6-[(4-pyrazol-1-ylphenyl)methyl]quinoline-8-carboxamide] |
| 81% | 6.02 | Cc1c(Cc2ccc(-n3cccn3)cc2)cc(C(=O)N[C@H]2CCC[C@@H]2O)c2ncccc12 [compound 26, N-[(1S,2S)-2-hydroxycyclopentyl]-5-methyl-6-[(4-pyrazol-1-ylphenyl)methyl]quinoline-8-carboxamide] |
